In ChEMBL document CHEMBL4043147, “9,19-Cycloartenol glycoside G3 from Cimicifuga simplex regulates immune responses by modulating Th17/Treg ratio” (Bioorg Med Chem, 2017) one finds inhibition and IC50 data, which are given here for five compounds.

What all share (details): C57BL/6, CD4-positive T cell
Test [1] is described as follows: Inhibition of C57BL/6 mouse CD4-positive T cell differentiation at 12.5 uM relative to control. The test is classed as functional.
Test [2] can be described thus: Inhibition of C57BL/6 mouse CD4-positive T cell differentiation at 6.25 uM relative to control. The test is classed as functional.
Test [3] in a line: Inhibition of C57BL/6 mouse CD4-positive T cell differentiation at 50 uM relative to control. The test is classed as functional.
The nature of test [4]: Inhibition of C57BL/6 mouse CD4-positive T cell differentiation. The format is functional, cell-based.
Test [5] can be described thus: Inhibition of C57BL/6 mouse CD4-positive T cell differentiation at 25 uM relative to control. The format is functional.

On to `CC(=O)O[C@@H]1C[C@@]23C[C@@]24CC[C@H](O[C@@H]2O[C@H](CO)[C@H](O)[C@H](O)[C@H]2O)C(C)(C)[C@@H]4CC=C3[C@]2(C)C[C@@]3(O)O[C@H](C(=O)[C@H]4OC4(C)C)[C@@H](C)[C@@H]3[C@@]12C`, for which testing at 12.5 µM in test [1] gave an inhibition of 52.4%. Further, the inhibition (as a rule, the relative decrease from the control value, in per cent) at 6.25 µM in test [2] is 8.9%. The same compound had an inhibition at 50 µM in test [3] of 98.6%. Further, the IC50 (usually the concentration needed to halve the response being measured) in test [4] amounted to 14.3 µM. The compound also registered an inhibition at 25 µM in test [5] of 68.3%.
As to `CC(=O)O[C@H]([C@H]1C[C@@H](C)C2=C(O1)[C@@H](O)[C@@]1(C)C3=CC[C@H]4C(C)(C)[C@@H](O[C@@H]5O[C@H](CO)[C@H](O)[C@H](O)[C@H]5O)CC[C@@]45C[C@@]35CC[C@]21C)C(C)(C)O`, at 12.5 µM the inhibition in test [1] was 54.3%. The inhibition at 6.25 µM in test [2] worked out at 21.6%. This compound yielded an inhibition at 50 µM in test [3] of 96.6%. This compound also returned an IC50 in test [4] of 12.6 µM. The compound further showed an inhibition at 25 µM in test [5] of 92.1%.
`C[C@@H]1C[C@H]([C@@H](O)C(C)(C)O)O[C@]2(O)[C@@H](O)[C@@]3(C)C4=CC[C@H]5C(C)(C)[C@@H](O[C@@H]6O[C@H](CO)[C@H](O)[C@H](O)[C@H]6O)CC[C@@]56C[C@@]46CC[C@]3(C)[C@@H]12` gave an inhibition at 12.5 µM in test [1] of 51.5%. For the same compound, 6.25 µM produced 10.3% inhibition in test [2]. In test [3], the inhibition at 50 µM is 99.6%. This compound gave an IC50 in test [4] of 18.3 µM. Further, testing at 25 µM in test [5] gave an inhibition of 74.1%.
`CC(=O)O[C@H]([C@H]1C[C@@H](C)C2=C(O1)[C@@H](O)[C@@]1(C)[C@@H]3CC[C@H]4C(C)(C)[C@@H](O[C@@H]5O[C@H](CO)[C@H](O)[C@H](O)[C@H]5O)CC[C@@]45C[C@@]35CC[C@]21C)C(C)(C)O` returned an inhibition at 12.5 µM in test [1] of 21.3%. This compound also returned an inhibition at 6.25 µM in test [2] of 10.2%. 50 µM produced 96.8% inhibition in test [3]. In addition, 14.6 µM corresponded to half-maximal inhibition in test [4] (IC50). Also, the inhibition at 25 µM in test [5] was 68.3%.
The compound `CC(=O)O[C@@H]1C[C@@]23C[C@@]24CC[C@H](O[C@@H]2OC[C@@H](O)[C@H](O)[C@H]2O)C(C)(C)[C@@H]4CC=C3[C@]2(C)C[C@]3(O)O[C@H](C(=O)[C@@H]4OC4(C)C)[C@@H](C)[C@@H]3[C@@]12C` showed an inhibition at 12.5 µM in test [1] of 24.6%. Besides, the inhibition at 6.25 µM in test [2] worked out at 5.3%. In test [3], this compound registered an inhibition at 50 µM of 99.1%. Also, 17.6 µM corresponded to half-maximal inhibition in test [4] (IC50). The compound further had an inhibition at 25 µM in test [5] of 82.6%.
